The values below come from article PMC11315827 (Drugs in R&D, 2024).

“And” between values parts separate entries of the source, which are not always exact repeats. Equal values may be shown once.

Data set [1] can be described thus: Nonhuman primate PK study, plasma and CSF. Particulars: for unbound partition coefficient Kp,uu CSF: based on plasma free fractions; for half-life / Cmax: male, cynomolgus monkey, in vivo, po; for Cmax: plasma Cmax.
Another data set addresses T1, BMX (Homo sapiens, UniProt P51813).
T1 sequence (P51813 1-675): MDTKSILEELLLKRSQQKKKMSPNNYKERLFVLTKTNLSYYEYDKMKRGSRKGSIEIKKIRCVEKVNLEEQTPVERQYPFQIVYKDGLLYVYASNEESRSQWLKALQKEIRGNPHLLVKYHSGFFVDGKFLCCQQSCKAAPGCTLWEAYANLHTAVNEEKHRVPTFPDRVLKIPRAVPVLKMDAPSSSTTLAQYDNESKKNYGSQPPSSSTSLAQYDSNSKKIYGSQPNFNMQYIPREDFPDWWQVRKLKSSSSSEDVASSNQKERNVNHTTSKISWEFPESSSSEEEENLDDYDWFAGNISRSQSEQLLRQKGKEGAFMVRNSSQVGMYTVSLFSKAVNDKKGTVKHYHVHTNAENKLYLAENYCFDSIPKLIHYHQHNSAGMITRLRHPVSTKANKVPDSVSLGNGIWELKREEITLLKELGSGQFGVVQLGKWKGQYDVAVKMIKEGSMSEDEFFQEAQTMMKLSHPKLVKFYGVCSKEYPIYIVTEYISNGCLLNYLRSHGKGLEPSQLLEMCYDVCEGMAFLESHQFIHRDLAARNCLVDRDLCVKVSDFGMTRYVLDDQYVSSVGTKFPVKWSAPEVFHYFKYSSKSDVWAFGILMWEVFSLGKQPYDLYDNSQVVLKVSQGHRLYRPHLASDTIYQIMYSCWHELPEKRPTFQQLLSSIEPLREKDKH
As to the kind of experiment: Kinase screening assays.

A further data set deals with BLK (Homo sapiens, UniProt P51451). As to the kind of experiment: Kinase screening assays.
Chain of BLK (P51451 whole entry, species assumed): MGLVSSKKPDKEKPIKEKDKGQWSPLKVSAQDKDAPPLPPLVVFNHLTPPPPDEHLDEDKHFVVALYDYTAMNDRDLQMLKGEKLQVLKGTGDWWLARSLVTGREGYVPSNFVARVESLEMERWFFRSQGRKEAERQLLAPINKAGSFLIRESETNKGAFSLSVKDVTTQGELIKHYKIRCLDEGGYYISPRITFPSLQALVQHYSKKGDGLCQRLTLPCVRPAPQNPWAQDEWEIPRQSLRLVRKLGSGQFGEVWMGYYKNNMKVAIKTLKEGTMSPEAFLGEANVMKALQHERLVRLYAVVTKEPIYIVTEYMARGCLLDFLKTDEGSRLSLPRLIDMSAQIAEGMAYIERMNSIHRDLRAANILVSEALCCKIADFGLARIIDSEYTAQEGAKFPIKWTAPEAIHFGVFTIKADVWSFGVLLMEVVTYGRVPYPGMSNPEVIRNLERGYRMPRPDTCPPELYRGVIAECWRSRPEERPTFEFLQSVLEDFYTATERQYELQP
For a further data set, the target named is T2, TXK (Homo sapiens, UniProt P42681).
T2 sequence (P42681 1-527): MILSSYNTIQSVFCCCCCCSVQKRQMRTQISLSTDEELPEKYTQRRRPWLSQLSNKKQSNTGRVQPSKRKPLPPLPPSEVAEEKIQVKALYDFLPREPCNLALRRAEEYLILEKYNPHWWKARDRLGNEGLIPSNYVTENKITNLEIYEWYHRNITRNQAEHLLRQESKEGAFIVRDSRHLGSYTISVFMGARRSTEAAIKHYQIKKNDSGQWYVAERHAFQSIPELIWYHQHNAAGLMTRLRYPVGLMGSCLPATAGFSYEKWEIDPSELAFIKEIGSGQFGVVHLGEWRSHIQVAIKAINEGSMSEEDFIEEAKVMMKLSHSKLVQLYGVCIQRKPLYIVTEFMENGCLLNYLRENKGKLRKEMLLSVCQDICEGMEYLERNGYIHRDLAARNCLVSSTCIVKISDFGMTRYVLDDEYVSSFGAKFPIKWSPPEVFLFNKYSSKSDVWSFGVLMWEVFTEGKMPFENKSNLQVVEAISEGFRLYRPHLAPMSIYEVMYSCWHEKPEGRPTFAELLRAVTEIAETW
As to the kind of experiment: Kinase screening assays.

Data set [2] has as its system Ramos cell expression of CD69 (BTK signaling). As to the kind of experiment: cells. The conditions noted are these: Homo sapiens, 18 h, read-out: apparent IC50 (CD69 expression).
The target of a further data set is BTK (Homo sapiens, UniProt Q06187). The conditions noted are these: "reported as"; cited from earlier work.
Chain of BTK (Q06187 whole entry): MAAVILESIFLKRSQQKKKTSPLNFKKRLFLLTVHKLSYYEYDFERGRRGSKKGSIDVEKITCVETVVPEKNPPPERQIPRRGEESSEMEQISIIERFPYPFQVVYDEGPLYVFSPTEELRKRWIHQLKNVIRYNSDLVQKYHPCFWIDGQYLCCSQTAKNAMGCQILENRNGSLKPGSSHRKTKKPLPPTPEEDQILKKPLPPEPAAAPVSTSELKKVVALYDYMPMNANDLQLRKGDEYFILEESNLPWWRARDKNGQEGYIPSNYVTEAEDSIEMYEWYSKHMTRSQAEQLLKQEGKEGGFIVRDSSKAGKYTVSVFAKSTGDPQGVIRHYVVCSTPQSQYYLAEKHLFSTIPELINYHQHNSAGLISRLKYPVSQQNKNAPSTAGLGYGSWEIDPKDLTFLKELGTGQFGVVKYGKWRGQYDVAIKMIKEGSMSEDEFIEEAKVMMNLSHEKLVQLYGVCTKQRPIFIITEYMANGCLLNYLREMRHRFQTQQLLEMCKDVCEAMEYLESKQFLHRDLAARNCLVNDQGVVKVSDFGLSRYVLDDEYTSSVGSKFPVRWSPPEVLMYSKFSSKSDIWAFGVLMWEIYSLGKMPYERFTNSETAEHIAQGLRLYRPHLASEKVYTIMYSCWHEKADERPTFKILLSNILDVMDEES

In general, half-life refers to the time in which the quantity being followed falls by half. A higher half-life goes with slow loss. A word on the Cmax: it is the highest concentration seen after dosing. In general, IC50 refers to the concentration that gives 50% inhibition. For the molecule `C=CC(=O)N1CCC[C@@H](n2c(=O)n(-c3ccc(Oc4ccccc4)cc3)c3c(N)nccc32)C1` [Tolebrutinib], in data set [1] (CSF, oral 10 mg/kg), the “CSF Cmax” value stood at 9.6 nM. In addition, the “CSF exposure (Cmax)” value in data set [1] (CSF, oral 10 mg/kg, 10 mg/kg) is reported as 4.4 ng/mL. Moreover, the “unbound partition coefficient Kp,uu CSF” value in data set [1] was 0.397. In data set [1] (10 mg/kg), the half-life is roughly 240 min. For the same molecule, the peak concentration (Cmax) in data set [1] (10 mg/kg, oral 10 mg/kg) is 103 ng/mL and 226 nM. Further, the half-maximal inhibitory concentration (IC50) against BMX, on BLK and against TXK was no more than 4 nM each time.
`C[C@H]1CN(C2COC2)CCN1c1ccc(Nc2cc(-c3ccnc(N4CCn5c(cc6c5CC(C)(C)C6)C4=O)c3CO)cn(C)c2=O)nc1` [Fenebrutinib]: the “unbound partition coefficient Kp,uu CSF” value in data set [1] was 0.147. In data set [1] (10 mg/kg, oral 10 mg/kg), the Cmax was 553 ng/mL and 853 nM. Besides, in data set [1] (plasma, oral 10 mg/kg), the “terminal t1/2 for elimination” value is “slightly prolonged”. Also, the half-maximal inhibitory concentration (IC50) in data set [2] was 19.8 nM. Further, on BTK, the dissociation rate was 1.52e-05 s⁻¹.
Turning to `C=CC(=O)N1CCC(CNc2ncnc(N)c2-c2ccc(Oc3ccccc3)cc2)CC1` [Evobrutinib], the “unbound partition coefficient Kp,uu CSF” value in data set [1] stood at 0.131. The molecule also had a half-life in data set [1] (10 mg/kg) of roughly 240 min. In addition, the Cmax in data set [1] (10 mg/kg, oral 10 mg/kg) is 287 ng/mL and 669 nM.
